Assay results: article PMC8216263 (Pharmaceutical Biology, 2021)

Target: T1, BCRP (Homo sapiens, UniProt Q9UNQ0)
T1 sequence (Q9UNQ0 1-655): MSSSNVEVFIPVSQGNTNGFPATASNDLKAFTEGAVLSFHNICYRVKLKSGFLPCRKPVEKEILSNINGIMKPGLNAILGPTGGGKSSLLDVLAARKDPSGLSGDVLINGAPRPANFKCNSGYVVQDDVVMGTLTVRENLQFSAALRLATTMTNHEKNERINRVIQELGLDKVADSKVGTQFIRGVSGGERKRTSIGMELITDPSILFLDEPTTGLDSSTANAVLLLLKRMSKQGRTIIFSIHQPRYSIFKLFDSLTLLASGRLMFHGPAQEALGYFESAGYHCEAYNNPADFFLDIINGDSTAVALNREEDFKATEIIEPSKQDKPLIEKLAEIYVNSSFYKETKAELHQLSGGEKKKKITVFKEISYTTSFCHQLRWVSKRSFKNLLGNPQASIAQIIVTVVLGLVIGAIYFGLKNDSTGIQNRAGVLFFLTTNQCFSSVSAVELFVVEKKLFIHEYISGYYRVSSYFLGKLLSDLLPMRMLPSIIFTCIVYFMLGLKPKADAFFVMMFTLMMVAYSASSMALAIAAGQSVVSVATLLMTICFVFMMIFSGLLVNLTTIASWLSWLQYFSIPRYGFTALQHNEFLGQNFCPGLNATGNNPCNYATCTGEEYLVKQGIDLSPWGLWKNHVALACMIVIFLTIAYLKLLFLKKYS
Assay: Inhibition of BCRP-mediated lucifer yellow efflux in MDCK-BCRP cells
Type: cell-based
Conditions: for inhibitory effect on efflux of BCRP-mediated lucifer yellow: GA 50–5000 μg/L, PCA 10–1000 μg/L
Excerpt: The human multidrug resistance protein (MDR)1-transfected Madin–Darby Canine Kidney (MDCK) cells, human breast cancer resistance protein (BCRP)-transfected MDCK cells, human organic anion transporter (OAT)1-transfected MDCK cells, OAT3-transfected second portion of proximal tubule (S2) cells, human organic cation transporter (OCT)2-transfected S2 cells, human organic anion transporting polypeptide (OATP)1B1-transfected human embryonic kidney 293 (HEK293) cells and their MOCK cells were kindly provided by Japan Fuji Biomedical Co., Ltd. (Osaka, Japan). Cells were cultured in DMEM supplemented with 10% FBS, 100 units/mL penicillin and 100 […]. All cells were incubated in a humidified atmosphere of 95% air and 5% CO2 at 37 °C. A solution of 0.25% trypsin-EDTA was used to detach the cells from flasks. Cell culture flasks, 24-well cell culture plates, and transwell polycarbonate inserts (12 mm diameter, 0.4 μm pore size) were purchased from Corning Co-star Corp. (Bedford, MA).
Inhibitory effects of GA and PCA on efflux transporters MDR1 and BCRP were investigated with the fluorogenic substrates rhodamine 123 (10 µM) and lucifer yellow (10 µM), respectively. The positive control inhibitors of MDR1 and BCRP were verapamil (10 µM) and cyclosporine (20 µM), respectively. The efflux experiments were adapted from previously reported methods with minor modifications (Reznicek et al. [2017]). Briefly, MDCK-MDR1, MDCK-BCRP and MDCK-mock cells were trypsinized and uniformly suspended in the designated volume of HBSS to provide a density of 4.0 × 10^5 cells/mL. For 0.5 mL of cell suspension and 1.5 mL of HBSS buffer medium were added in the apical and basolateral compartments of 12-well Transwell plates. After cultivation for 7 d, cells were washed twice and equilibrated for 30 min at 37 °C with the pre-warmed HBSS buffer. […] Fluorescence was measured at 485 nm (excitation) and 546 nm (emission) for rhodamine 123, and 425 nm (excitation) and 528 nm (emission) for Lucifer yellow. […]

| Structure (SMILES) | inhibitory effect on efflux of BCRP-mediated lucifer yellow | efflux of lucifer yellow compared with the control (relatively high concentrations) |
| --- | --- | --- |
| O=C(O)c1cc(O)c(O)c(O)c1 [GA, gallic acid] | no significant inhibitory effect |  |
| O=C(O)c1ccc(O)c(O)c1 [PCA, protocatechuic acid] | no significant inhibitory effect | significant increase |
